What was measured:
Type in all cases: cell-based
[1] = tested on: patient-derived multiple myeloma cells; assay: Ex vivo anti-CD38 ADCC in autologous setting, patients' bone marrow aspirates; details: anti-CD38 antibody 0.5 μg/ml with or without Compound B 0.5 μM, 72 hours (FIG. 3A)
Description: After bone marrow aspiration, fresh bone marrow mononuclear cells (MNC) were obtained by ammonium chloride based-lyses of red cells followed by washing in phosphate-buffered saline (PBS). […] The cells were incubated for 72 h at 37° C. in 5% CO2. The viability of primary MM cells in BM MNC was determined by near infrared (n-IR) viability dyes. The surviving CD138+MM cells were enumerated in the presence of Flow-Count Fluorospheres (Beckman Coulter, CA, USA), to determine absolute numbers of viable MM cells. The percentage of daratumumab-mediated ADCC was then calculated using the following formula: % lysis cells=100−[(absolute number of surviving CD138+ cells in the presence of daratumumab/absolute number of surviving CD138+ cells in the presence of control antibody)×100%]. Phenotypic analyses of MNC were performed using a single 5-color combination of monoclonal antibodies containing CD138-PE/CD38-APC/n-IR-viability (BioLegend, San Diego, Calif., USA). Plasma cells in BM MNC were identified by CD138-PE and CD38-APC staining, and expression of CD38 on plasma cells were determined (BD Biosciences, San Jose, Calif., USA). After incubation, cells were washed twice in PBS containing 2% BSA, and then resuspended in PBS for analysis on a Fortessa cytometer (Becton Dickinson, Mountain View, Calif.). […]
The average cytotoxicity (mean±SD) was calculated from 6 patients' samples (see also FIG. 3B).

[2] = tested on: RPMI-8226 multiple myeloma cells; assay: CD38 surface level by FACS, RPMI-8226 cells; details: various doses, 48 hours, FACS (FIG. 1A)
[3] = tested on: MM.1S multiple myeloma cells; assay: CD38 surface level by FACS, MM.1S cells; details: various doses, 48 hours, FACS (FIG. 1B)
H929 cells = assay: Anti-CD38 ADCC in CFSE-stained H929 cells with PBMCs, flow cytometry; details: pomalidomide 0.1 μM, Compound B 0.25, 0.5, 1 μM, 72 h, then anti-CD38 antibody 0.5 μg/ml 3 hours (FIG. 6)
Description: The cells were then incubated with an anti-CD38 antibody (0.5 μg/ml) for 3 hours. Cytotoxicity was assessed by flow cytometry.

[4] = tested on: H929 multiple myeloma cells; assay: Anti-CD38 antibody-dependent cell-mediated cytotoxicity (Calcein-AM) in H929 cells; details: 0.5 μM-2 μM for 24 hours
Description: Multiple myeloma cells were incubated with Calcein-AM (Invitrogen, 2 μg/ml/1 million cells) for 30 min at 37° C. After washing, the cells were used for target cells. Mononuclear cells were obtained from healthy volunteer peripheral blood by Ficoll-Paque density centrifugation and used for effector cells. Both target and effector cells (E/T=15-20) were incubated for 3-4 h and culture supernatant were subjected to measurement of fluorescence using a 490 nm excitation filter and a 520 emission filter. Percent specific lysis was calculated as follows, % specific lysis=[experiment fluorescence−spontaneous fluorescence (no effector)]/[complete lysis (100% killing by detergent)−spontaneous fluorescence (no effector)]×100 Flow Cytometry-Based Ex Vivo ADCC Assay
Cells were stained with Calcein-AM and incubated with peripheral blood mononuclear cells at a ratio of 20:1 for 3 hours.

Row | Compound | anti-CD38 antibody dependent cell mediated cytotoxicity [1] | percentage of CD38 positive cells [2] | percentage of CD38 positive cells [3] | anti-CD38 antibody-induced cytotoxicity (ADCC) (H929 cells) | Percent specific lysis ([4]; PBMC 20:1 for 3 hours (FIG. 2A)) | percent augmentation ([4]; PBMC 20:1 for 3 hours (FIG. 2B))
1 | O=C(CCCCCCNC(=O)c1cnc(N(c2ccccc2)c2ccccc2Cl)nc1)NO [Compound B, 2-((2-chlorophenyl)(phenyl)amino)-N-(7-(hydroxyamino)-7-oxoheptyl)pyrimidine-5-carboxamide] | increased | increased | increased | enhanced | – | –
2 | O=C(CCCCCCNC(=O)c1cnc(N(c2ccccc2)c2ccccc2)nc1)NO [Compound A, 2-(diphenylamino)-N-(7-(hydroxyamino)-7-oxoheptyl)pyrimidine-5-carboxamide] | – | increased | increased | – | increased as concentration of Compound A increased | increased as concentration of Compound A increased
